This data set is described as follows: Solubility in Citrate Buffer pH 4. The settings on record: 25 °C, pH 4, aqueous buffer, thermodynamic from solid.

Experimental: 25 mg compound are placed in 2 ml solvent. […] Thereafter, the solution or suspension is filtered and the remaining solution is analyzed via HPLC. The solubility is determined by comparison of the total area of the substance peak to a calibration curve (external standard).
Thereafter, the solution was centrifuged and analyzed via HPLC. The solubility was determined by comparison of the total area of the substance peak to a calibration curve (external standard). The measurements were conducted in triplicates.

With `CCc1c(N2CC[C@H](O)C2=O)cccc1S(=O)(=O)N[C@@H](CNC(=O)c1ccc(Cl)s1)C(=O)OCCc1nccn1C.Cl` [Example 2, 2-(1-Methyl-1H-imidazol-2-yl)ethyl 3-[(5-chlorothiophene-2-carbonyl)amino]-N-{2-ethyl-3-[(3S)-3-hydroxy-2-oxopyrrolidin-1-yl]benzene-1-sulfonyl}-S-alaninate hydrochloride], the solubility at 24 h was above 500 mg/mL.

In general, solubility refers to how much of the substance goes into solution per volume.
